Reference: ChEMBL document CHEMBL1201862, “PubChem BioAssay data set” (2004)
Activity calls are given as the source filed them.

Experiments:
[1] = target: Voltage-dependent T-type calcium channel subunit alpha-1H (Homo sapiens, UniProt O95180); assay type: functional;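 also: channel activity triggered by adding a high calcium stimulation buffer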
[2] = target: T1, Polyadenylate-binding protein 1 (Homo sapiens, UniProt P11940); assay: MLLE binding blockers, Cy5 peptide tracer – biochemical, fluorescence polarization, Cy5-PAM2 peptide, secondary, miRNA deadenylation inhibitor project, dose response (AID 602260); assay type: functional; conditions: read-out: IC50_Mean
T1 sequence (P11940 whole entry, the tested form may be a part): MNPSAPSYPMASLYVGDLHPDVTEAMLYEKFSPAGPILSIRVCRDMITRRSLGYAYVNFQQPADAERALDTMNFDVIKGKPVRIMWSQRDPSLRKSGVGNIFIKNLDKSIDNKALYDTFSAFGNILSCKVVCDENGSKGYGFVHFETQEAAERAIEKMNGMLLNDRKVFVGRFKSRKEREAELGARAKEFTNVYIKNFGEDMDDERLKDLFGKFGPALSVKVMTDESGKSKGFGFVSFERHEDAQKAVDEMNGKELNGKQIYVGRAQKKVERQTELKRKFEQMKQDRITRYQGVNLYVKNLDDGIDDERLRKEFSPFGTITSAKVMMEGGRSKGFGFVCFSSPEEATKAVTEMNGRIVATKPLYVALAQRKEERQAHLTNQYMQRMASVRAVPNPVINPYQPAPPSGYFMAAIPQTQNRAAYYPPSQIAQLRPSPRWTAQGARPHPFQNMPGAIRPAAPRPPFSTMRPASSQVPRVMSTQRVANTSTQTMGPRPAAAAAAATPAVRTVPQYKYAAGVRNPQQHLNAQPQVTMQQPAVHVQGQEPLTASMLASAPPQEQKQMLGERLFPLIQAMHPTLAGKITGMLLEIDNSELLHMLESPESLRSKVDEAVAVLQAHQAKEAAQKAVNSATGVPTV

[3] = target: T1, Polyadenylate-binding protein 1; assay: MLLE domain peptide-binding blockers, IC50 – biochemical, fluorescence polarization, FITC-PAM2 peptide, dose response (AID 602259); assay type: functional; conditions: read-out: IC50_Mean
Leucine aminopeptidase = target: T2, Leucine aminopeptidase (Plasmodium falciparum 3D7, UniProt Q8IL11); assay: P. falciparum M17LAP inhibitors, primary screen, biochemical, fluorogenic H-Leu-NHMec substrate, 1536-well (AID 1619); assay type: functional
T2 sequence (Q8IL11 whole entry): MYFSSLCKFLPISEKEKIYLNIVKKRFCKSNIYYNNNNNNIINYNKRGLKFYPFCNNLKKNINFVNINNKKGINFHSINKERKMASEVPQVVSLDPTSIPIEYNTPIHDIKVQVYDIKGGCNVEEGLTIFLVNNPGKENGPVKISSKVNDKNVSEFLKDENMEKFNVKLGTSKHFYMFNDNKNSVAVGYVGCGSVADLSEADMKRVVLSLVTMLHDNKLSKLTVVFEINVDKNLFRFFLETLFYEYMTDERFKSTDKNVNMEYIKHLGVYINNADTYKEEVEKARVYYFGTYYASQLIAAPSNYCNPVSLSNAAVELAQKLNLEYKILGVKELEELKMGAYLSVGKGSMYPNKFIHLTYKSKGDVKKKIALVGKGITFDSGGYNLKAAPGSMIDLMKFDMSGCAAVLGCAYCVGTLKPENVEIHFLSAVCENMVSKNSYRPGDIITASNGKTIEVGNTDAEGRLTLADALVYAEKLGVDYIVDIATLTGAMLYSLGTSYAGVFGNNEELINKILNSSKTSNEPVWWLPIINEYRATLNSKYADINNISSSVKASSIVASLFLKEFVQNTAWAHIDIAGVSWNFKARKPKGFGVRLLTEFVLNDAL

Large T antigen = Large T antigen (Simian virus 40, UniProt P03070); assay type: functional, Betapolyomavirus macacae;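 also: Confirmatory-stage PubChem screen for compounds that inhibit SV40 T antigen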
Chain of Large T antigen (P03070 whole entry): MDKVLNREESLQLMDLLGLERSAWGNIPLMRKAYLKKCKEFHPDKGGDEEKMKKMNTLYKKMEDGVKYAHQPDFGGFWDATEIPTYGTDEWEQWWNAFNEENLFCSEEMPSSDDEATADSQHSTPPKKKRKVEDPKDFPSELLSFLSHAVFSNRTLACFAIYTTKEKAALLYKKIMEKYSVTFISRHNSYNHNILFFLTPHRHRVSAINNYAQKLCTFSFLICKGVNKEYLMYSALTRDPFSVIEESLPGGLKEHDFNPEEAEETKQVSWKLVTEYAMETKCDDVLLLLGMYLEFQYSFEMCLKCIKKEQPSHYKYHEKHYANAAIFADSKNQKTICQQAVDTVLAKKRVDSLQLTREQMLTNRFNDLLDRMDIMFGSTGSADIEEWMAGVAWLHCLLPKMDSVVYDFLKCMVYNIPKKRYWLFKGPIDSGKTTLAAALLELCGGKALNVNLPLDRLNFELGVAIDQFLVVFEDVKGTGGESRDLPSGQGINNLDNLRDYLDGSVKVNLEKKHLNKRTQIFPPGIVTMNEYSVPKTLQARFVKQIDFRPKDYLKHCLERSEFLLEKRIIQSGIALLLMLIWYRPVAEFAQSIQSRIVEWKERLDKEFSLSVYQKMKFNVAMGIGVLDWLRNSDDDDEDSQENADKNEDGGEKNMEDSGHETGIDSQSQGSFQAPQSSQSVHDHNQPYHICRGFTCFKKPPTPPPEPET

Genome polyprotein = Genome polyprotein (dengue virus type 2, UniProt P29990); assay: flavivirus cap methylation enzyme inhibition – biochemical, confirmation dose response, primary screen (AID 588689); assay type: functional
Chain of Genome polyprotein (P29990 2492-3391 limits assumed): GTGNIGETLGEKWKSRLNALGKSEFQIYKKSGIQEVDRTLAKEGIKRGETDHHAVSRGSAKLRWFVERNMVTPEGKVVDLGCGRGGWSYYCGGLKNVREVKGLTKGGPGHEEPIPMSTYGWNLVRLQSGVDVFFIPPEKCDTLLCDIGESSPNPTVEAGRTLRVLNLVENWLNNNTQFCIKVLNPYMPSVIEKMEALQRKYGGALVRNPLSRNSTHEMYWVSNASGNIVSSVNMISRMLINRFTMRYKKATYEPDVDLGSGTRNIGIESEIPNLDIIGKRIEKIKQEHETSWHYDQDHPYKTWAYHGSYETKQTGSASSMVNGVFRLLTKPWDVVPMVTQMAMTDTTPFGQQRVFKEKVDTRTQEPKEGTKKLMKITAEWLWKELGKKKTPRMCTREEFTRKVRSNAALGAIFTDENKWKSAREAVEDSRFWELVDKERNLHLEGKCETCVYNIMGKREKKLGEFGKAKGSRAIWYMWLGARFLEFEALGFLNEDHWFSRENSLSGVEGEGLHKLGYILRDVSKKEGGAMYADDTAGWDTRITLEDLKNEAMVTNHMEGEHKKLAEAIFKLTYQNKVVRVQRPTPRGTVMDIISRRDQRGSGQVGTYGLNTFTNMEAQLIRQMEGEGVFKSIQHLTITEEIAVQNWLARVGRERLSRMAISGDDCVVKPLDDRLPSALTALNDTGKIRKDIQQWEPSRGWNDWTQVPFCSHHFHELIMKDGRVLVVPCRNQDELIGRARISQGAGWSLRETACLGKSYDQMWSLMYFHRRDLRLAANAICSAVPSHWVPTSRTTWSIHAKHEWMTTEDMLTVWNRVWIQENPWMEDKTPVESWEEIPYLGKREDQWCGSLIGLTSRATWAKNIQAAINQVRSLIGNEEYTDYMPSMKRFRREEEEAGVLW

[4] = target: FAD-linked sulfhydryl oxidase ALR (Homo sapiens, UniProt P55789); assay: ALR-catalysed DTT oxidation blockers – biochemical, H2O2 detection, luminescence, cherry-pick, dose response (AID 493248)
Cytochrome P450 3A4 = Cytochrome P450 3A4 (Homo sapiens, UniProt P08684);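 also: CYP3A4 tested as one member of a cytochrome P450 panel screen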
Cytochrome P450 2C19 = Cytochrome P450 2C19 (Homo sapiens, UniProt P33261); assay: Cytochrome panel assay with activity outcomes. Panel member name: p450-cyp2c19 Compounds with AC50 equal or less than 10 uM are considered active; assay type: functional; conditions: read-out: AC50
Chain of Cytochrome P450 2C19 (P33261 whole entry): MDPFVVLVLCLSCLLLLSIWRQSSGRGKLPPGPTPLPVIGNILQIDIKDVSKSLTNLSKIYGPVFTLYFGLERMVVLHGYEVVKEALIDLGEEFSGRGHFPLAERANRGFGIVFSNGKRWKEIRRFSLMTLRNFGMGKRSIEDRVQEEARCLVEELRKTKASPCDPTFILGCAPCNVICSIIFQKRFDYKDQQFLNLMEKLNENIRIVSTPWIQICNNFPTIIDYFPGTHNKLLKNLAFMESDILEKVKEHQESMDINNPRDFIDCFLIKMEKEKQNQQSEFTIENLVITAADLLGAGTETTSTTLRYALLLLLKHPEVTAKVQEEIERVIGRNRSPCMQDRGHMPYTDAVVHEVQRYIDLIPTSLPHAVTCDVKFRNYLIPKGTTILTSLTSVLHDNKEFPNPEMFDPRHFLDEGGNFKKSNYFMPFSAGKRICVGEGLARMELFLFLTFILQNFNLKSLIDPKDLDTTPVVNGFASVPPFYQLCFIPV

[5] = Trypanosoma cruzi growth suppression in host cells – NIH3T3 host cells, beta-gal luminescence, confirmation (AID 2044); assay type: functional, cell-based;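 also: intracellular parasites grown in NIH/3T3 mouse fibroblasts as host cells; luminescent beta-galactosidase reporter signal from transgenic T. cruzi replicating inside host cells; inhibitors lower the luminescence signal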
[6] = NIH3T3 cell viability loss – ATP luminescence, mouse fibroblasts, counter-screen, dose response (AID 2010); assay type: functional, cell-based;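 also: cells exposed to compound for about 90 hours before reading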
[7] = target: T3, Replicative DNA helicase DnaB (Mycobacterium tuberculosis, UniProt P9WMR3); assay: DnaB intein splicing inhibitors, dose response, biochemical, cell-free fluorescence (AID 449749); assay type: functional
T3 sequence (P9WMR3 whole entry): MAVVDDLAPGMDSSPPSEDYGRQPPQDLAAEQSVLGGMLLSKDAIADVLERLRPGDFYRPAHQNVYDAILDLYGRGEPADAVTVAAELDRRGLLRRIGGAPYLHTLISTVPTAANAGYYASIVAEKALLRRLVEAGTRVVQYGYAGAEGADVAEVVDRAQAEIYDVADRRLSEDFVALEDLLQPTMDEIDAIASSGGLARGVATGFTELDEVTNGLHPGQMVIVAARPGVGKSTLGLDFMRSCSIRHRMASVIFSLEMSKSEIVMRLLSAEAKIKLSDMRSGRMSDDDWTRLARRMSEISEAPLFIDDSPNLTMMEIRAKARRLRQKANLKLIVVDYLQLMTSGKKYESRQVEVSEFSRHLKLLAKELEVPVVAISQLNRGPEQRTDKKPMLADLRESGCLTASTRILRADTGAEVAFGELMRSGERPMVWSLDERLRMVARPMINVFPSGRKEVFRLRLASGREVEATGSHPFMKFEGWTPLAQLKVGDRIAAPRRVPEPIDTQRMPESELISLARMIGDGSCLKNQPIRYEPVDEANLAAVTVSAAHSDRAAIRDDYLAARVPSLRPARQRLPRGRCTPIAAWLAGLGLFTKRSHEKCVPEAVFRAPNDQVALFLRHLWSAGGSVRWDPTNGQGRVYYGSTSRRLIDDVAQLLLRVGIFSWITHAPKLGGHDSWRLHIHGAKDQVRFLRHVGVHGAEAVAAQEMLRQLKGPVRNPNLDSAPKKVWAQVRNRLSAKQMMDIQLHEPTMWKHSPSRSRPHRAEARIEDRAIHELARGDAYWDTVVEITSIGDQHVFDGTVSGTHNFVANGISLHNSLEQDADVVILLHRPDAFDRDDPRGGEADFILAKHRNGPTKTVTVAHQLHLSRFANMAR

Protein RecA = target: T4, Protein RecA (Mycobacterium tuberculosis, UniProt P9WHJ3); assay: Fluorescence Cell-Free Homogeneous Dose Retest to Identify Inhibitors of RecA-Intein Splicing Activity. [Related pubchem assays (depositor defined):AID2097, AID2223, AID489010, AID492950]; assay type: functional
T4 sequence (P9WHJ3 whole entry): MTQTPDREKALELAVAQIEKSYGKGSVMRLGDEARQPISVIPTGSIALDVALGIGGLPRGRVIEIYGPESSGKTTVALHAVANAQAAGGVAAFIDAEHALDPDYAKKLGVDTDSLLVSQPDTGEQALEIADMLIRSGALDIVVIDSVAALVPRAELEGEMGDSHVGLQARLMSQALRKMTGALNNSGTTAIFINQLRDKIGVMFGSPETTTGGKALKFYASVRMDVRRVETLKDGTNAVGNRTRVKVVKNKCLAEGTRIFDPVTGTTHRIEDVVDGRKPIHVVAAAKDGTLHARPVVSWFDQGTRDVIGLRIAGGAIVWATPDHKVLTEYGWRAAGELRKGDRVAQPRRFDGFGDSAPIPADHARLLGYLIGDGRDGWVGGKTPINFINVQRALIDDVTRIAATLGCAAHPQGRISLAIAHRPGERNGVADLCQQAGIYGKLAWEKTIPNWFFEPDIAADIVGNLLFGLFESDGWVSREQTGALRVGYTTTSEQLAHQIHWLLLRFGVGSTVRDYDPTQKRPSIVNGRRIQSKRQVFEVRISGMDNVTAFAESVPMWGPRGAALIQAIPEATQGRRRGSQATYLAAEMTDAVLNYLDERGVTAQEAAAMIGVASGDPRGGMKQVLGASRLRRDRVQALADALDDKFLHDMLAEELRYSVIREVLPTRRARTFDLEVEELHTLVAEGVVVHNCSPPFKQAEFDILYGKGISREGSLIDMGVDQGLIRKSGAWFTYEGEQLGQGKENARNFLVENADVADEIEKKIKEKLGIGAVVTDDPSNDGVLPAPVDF

SN12K1 = assay: cells; assay type: functional; conditions: Homo sapiens
P388 = assay: cells; assay type: functional; conditions: Mus musculus
P388/ADR = assay: cells; assay type: functional; conditions: Mus musculus

Chain of Voltage-dependent T-type calcium channel subunit alpha-1H (O95180 whole entry): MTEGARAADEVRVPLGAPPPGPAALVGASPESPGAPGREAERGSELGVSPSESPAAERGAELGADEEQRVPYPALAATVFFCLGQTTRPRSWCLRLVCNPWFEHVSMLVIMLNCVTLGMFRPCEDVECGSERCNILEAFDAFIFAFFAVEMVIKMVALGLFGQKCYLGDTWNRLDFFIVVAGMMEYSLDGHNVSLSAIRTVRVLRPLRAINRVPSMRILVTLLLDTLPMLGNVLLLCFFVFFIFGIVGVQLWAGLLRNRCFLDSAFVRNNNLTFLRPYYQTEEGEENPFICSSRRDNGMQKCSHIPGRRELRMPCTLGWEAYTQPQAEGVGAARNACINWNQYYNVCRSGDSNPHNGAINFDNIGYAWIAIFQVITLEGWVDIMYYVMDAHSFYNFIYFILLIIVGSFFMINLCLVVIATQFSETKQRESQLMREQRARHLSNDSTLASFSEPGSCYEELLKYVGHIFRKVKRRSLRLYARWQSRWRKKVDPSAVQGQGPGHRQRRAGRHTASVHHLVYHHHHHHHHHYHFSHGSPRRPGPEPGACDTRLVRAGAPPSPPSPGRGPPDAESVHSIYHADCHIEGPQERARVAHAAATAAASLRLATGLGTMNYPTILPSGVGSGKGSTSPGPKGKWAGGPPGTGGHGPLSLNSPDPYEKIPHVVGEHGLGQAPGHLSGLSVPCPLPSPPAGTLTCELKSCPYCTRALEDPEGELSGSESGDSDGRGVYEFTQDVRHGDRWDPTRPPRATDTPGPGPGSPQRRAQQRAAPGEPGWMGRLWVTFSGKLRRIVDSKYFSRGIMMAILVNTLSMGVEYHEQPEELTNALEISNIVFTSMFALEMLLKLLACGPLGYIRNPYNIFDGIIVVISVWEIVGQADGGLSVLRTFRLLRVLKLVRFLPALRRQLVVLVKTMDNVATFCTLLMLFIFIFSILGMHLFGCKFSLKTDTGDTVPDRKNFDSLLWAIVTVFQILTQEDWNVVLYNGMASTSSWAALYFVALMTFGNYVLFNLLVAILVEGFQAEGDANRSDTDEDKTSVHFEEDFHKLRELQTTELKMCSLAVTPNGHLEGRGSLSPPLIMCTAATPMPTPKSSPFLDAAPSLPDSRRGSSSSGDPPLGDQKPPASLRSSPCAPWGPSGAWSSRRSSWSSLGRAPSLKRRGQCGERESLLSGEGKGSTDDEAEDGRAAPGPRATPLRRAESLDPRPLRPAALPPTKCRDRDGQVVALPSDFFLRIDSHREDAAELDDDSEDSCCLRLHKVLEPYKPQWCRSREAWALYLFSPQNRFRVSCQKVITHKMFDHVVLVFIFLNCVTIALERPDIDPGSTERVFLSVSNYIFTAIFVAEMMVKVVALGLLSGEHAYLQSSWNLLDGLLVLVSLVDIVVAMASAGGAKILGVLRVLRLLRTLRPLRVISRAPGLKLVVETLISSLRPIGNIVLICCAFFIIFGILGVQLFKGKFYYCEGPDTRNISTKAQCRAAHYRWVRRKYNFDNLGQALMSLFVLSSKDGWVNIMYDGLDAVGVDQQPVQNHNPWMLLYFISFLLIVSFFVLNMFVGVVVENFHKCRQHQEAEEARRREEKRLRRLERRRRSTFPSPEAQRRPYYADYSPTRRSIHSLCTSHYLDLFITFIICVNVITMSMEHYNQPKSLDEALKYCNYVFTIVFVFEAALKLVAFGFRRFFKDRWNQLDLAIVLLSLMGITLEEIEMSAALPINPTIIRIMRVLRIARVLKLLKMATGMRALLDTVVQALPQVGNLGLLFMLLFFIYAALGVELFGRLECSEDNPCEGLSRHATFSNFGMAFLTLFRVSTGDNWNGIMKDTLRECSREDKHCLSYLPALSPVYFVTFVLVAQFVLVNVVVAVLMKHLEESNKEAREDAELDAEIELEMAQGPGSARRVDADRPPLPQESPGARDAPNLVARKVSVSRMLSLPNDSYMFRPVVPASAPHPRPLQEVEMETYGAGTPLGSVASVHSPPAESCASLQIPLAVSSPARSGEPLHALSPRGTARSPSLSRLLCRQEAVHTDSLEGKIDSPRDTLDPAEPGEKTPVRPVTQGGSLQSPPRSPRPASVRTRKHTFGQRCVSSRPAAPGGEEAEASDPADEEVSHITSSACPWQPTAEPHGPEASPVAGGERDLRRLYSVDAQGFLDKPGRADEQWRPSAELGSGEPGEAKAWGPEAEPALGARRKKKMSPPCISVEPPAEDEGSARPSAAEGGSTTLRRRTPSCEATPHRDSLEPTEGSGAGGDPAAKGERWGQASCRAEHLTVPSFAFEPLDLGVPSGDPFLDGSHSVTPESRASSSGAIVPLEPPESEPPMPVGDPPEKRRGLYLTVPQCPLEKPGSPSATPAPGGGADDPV

CCC(=O)C1=C(NCCc2c(C)[nH]c3ccc(C)cc23)CC(c2ccccc2)CC1=O (stereo not drawn)
EC50 [1]: 798 µM (active)

COc1ccccc1-n1c(N)c(C(N)=O)sc1=S
IC50 [2]: > 66 µM (inactive)
IC50 [3]: > 66 µM (inactive)

NC(=O)c1c(NC(=O)C2CCCO2)sc2c1CCCCC2 (stereo not drawn)
IC50 (Leucine aminopeptidase): 58.7 µM (active)
IC50 [2]: > 66 µM (inactive)
IC50 [3]: > 66 µM (inactive)

COc1ccccc1N1CCN(CC(O)COc2ccc3c(c2)CCC3)CC1 (stereo not drawn)
EC50 [1]: 5.92 µM (active)

CC(=O)Nc1c(O)nc(SCC(=O)Nc2sc3c(c2C#N)CCCCCC3)nc1O
IC50 (Leucine aminopeptidase): 27.9 µM (active)

CCOC(=O)CSC(C)C(=O)Nc1nnc(C(C)C)s1 (stereo not drawn)
IC50 (Leucine aminopeptidase): 37.7 µM (active)

Cc1[nH]c2ccccc2c1Cc1nnc(SCc2ccccc2)o1
EC50 [1]: 3.55 µM (active)

C[C@H](NS(=O)(=O)c1ccc2c(c1)OCCCO2)C(=O)N1CCN(c2ccc(F)cc2)CC1
IC50 [2]: > 66 µM (inactive)
IC50 [3]: > 66 µM (inactive)

COC(=O)C1=C(O)/C(=C/c2cccc(OC)c2O)N=C1C
IC50 (Large T antigen): 14.8 µM (active)

COc1ccc(-c2c[nH]nc2N)cc1
IC50 (Leucine aminopeptidase): 60.8 µM (active)

CCN(CC)S(=O)(=O)c1ccc(N2CCOCC2)c(NC(=O)CCC2CCCCC2)c1
IC50 [2]: > 66 µM (inactive)
IC50 [3]: > 66 µM (inactive)

Cc1cc([N+](=O)[O-])ccc1N1C(=O)c2ccc(C(=O)Nc3ccccc3C(=O)O)cc2C1=O
IC50 (Genome polyprotein): 67.9 µM (active)
AC50 [4]: 57 µM (active)

Cc1ccc(NC(=O)CN(C)C(=O)CSc2n[nH]c(N)n2)cc1
IC50 (Leucine aminopeptidase): 44.7 µM (active)
AC50 (Cytochrome P450 3A4): 31.6 µM (inconclusive)
AC50 (Cytochrome P450 2C19): 0.0355 µM (inconclusive)

COC(=O)c1cccc(NC(=O)Cn2cnc3ccccc3c2=O)c1
IC50 (Leucine aminopeptidase): 43.5 µM (active)

O=C(c1ccc(Cl)c(Cl)c1)N1CCC(=O)N(C(COCc2ccccc2)Cc2ccccc2)CC1 (stereo not drawn)
EC50 [1]: 2.88 µM (active)

Cc1ccsc1/C=C1/C(=O)NN(c2ccccc2)C1=O
IC50 (Large T antigen): 28.1 µM (active)

COc1ccccc1NS(=O)(=O)c1cc(NC(=O)Nc2cccc(C)c2)ccc1N1CCCCC1
EC50 [5]: 2.16 µM (active)
IC50 [2]: > 66 µM (inactive)
EC50 [6]: > 60 µM (not active)
IC50 [3]: > 66 µM (inactive)

CC(=O)Nc1ccc(Nc2ccc3c4c(cc(=O)n3C)-c3ccccc3C(=O)c24)cc1
IC50 [2]: > 66 µM (inactive)
IC50 [3]: 59.4 µM (inactive)

O=C(c1cc2sccc2n1Cc1ccc(F)cc1)N1CCCc2ccccc21
EC50 [1]: 4.88 µM (active)

CC(=O)Oc1ccc(/C=C2/C(=O)N(c3ccccc3)N=C2C)cc1
IC50 (Genome polyprotein): 56 µM (active)
AC50 [7]: 2.76 µM (active)
EC50 (Protein RecA): 2.72 µM (active)

CCCCN(Cc1ccccc1)S(=O)(=O)c1cc(Br)cc2c1N(C(C)=O)C(C)C2 (stereo not drawn)
EC50 [1]: 18.2 µM (active)

C[C@@H]1CCC2[C@](C)(CO)[C@@H](O)CC[C@]2(C)[C@@]12CC[C@@](CO)(CC(=O)O)O2 (stereo partly drawn)
IC50 [2]: > 66 µM (inactive)
IC50 [3]: > 66 µM (inactive)

C=CCn1c2ccccc2c2c(C)c3cnccc3c(C)c21
GI50 (SN12K1): 8.41 µM (inactive)
GI50 (P388): 3.34 µM (inactive)
GI50 (P388/ADR): 11.2 µM (inactive)

COc1cc(/C=C(/C#N)C(N)=O)ccc1O
GI50 (SN12K1): > 100 µM (inactive)
GI50 (P388): > 100 µM (inactive)
GI50 (P388/ADR): > 100 µM (inactive)

C=CC12CN(C)C3C4COC(CC41)C1(C(=O)Nc4ccccc41)C32 (stereo not drawn)
GI50 (SN12K1): 185 µM (inactive)
GI50 (P388): 63.1 µM (inactive)
GI50 (P388/ADR): 136 µM (inactive)

CC1CCC2(C(=O)O)CCC3(C)C(=CCC4C5(C)CCC(O)C(C)(C)C5CCC43C)C2C1C (stereo not drawn)
GI50 (SN12K1): 4.12 µM (inactive)
GI50 (P388): 2.27 µM (inactive)
GI50 (P388/ADR): 2.1 µM (inactive)

c1cc(-c2ccoc2)n2ccnc2c1
IC50 [2]: > 66 µM (inactive)
IC50 [3]: > 66 µM (inactive)

N/C(=N\O)N/N=C\c1c(O)cc(O)cc1O
GI50 (SN12K1): 15.7 µM (inactive)
GI50 (P388): > 44.4 µM (inactive)
GI50 (P388/ADR): 17.5 µM (inactive)

CC1=C2C(O)C(C(C)C(=O)NCC(C)C)CCC2(C)C=CC1=O (stereo not drawn)
GI50 (SN12K1): > 100 µM (inactive)
GI50 (P388): > 100 µM (inactive)
GI50 (P388/ADR): > 100 µM (inactive)

Cc1[nH]c(=O)[nH]c(=O)c1/C=C/C(=O)NC(CO)C[S+]([O-])Cc1ccccc1 (stereo not drawn)
GI50 (SN12K1): > 300 µM (inactive)
GI50 (P388): > 179 µM (inactive)
GI50 (P388/ADR): > 300 µM (inactive)

O=C1c2ccccc2OCC1/C=N/O (stereo not drawn)
GI50 (SN12K1): 40.5 µM (inactive)
GI50 (P388): 18.9 µM (inactive)

COc1cc(-c2ccc(/N=N/c3ccc4c(S(=O)(=O)O)cc(S(=O)(=O)O)c(N)c4c3O)c(OC)c2)ccc1/N=N/c1ccc2c(S(=O)(=O)O)cc(S(=O)(=O)O)c(N)c2c1O
GI50 (SN12K1): > 100 µM (inactive)
GI50 (P388): > 100 µM (inactive)
GI50 (P388/ADR): > 100 µM (inactive)

CC1[C@@H]2CC=C3[C@H]4CCC5Cc6nc7c(nc6C[C@@]5(C)C4CC(=O)[C@]32CO[C@]12OC(C)(C)CC2O)CC1CC[C@@H]2C3=C[C@H]4O[C@@]5(O[C@@](C)(CO)C[C@@H]5O)C(C)[C@@]4(O)[C@]3(C)[C@@H](O)CC2[C@]1(C)C7 (stereo partly drawn)
GI50 (SN12K1): 0.000365 µM (active)
GI50 (P388): 0.000365 µM (active)
GI50 (P388/ADR): 0.00152 µM (active)
